ChEMBL document CHEMBL5724914, “Linking interpersonal differences in gut microbiota composition and drug biotransformation activity” (2024)

What was measured:
[1] = (§1) The drug is tested on Z-029 corresponding to rat gut metagenome with ENA study accession number: PRJEB37062 and ENA sample accession number: ERS12561828 for biotransformation under anaerobic condition. The drug concentrations were measured over 9 timepoints collected between 0 and 24 hours of incubation by liquid-chromatography-coupled mass spectrometry (LC–MS); conditions: 2 µM
[2] = as §1, with “on Z-006” for “on Z-029”, “to mouse” for “to rat”, “number: ERS12561806” for “number: ERS12561828”; conditions: 2 µM
[3] = human gut metagenome, 24 h, 2 µM
[4] = human gut metagenome, 24 h, 2 µM; remark: listed apart in the source
[5] = human gut metagenome, 24 h, 2 µM; remark: listed apart in the source
[6] = as §1, with “on Z-020” for “on Z-029”, “to rabbit” for “to rat”, “number: ERS12561819” for “number: ERS12561828”; conditions: 2 µM
[7] = human gut metagenome, 24 h, 2 µM; remark: listed apart in the source
[8] = human gut metagenome, 24 h, 2 µM; remark: listed apart in the source
[9] = as §1, with “Z-012” for “Z-029”, “to” for “to rat gut”, “ERS12561812” for “ERS12561828”; conditions: 2 µM
[10] = as §1, with “Z-005” for “Z-029”, “to” for “to rat gut”, “ERS12561805” for “ERS12561828”; conditions: 2 µM
[11] = as §1, with “on Z-024” for “on Z-029”, “to pig” for “to rat”, “number: ERS12561823” for “number: ERS12561828”; conditions: 2 µM
[12] = as §1, with “on Z-009” for “on Z-029”, “to pig” for “to rat”, “number: ERS12561809” for “number: ERS12561828”; conditions: 2 µM
[13] = as §1, with “on Z-016” for “on Z-029”, “to mouse” for “to rat”, “number: ERS12561815” for “number: ERS12561828”; conditions: 2 µM
[14] = as §1, with “Z-023” for “Z-029”, “to” for “to rat gut”, “ERS12561822” for “ERS12561828”; conditions: 2 µM
[15] = as §1, with “Z-008” for “Z-029”, “to” for “to rat gut”, “ERS12561808” for “ERS12561828”; conditions: 2 µM
[16] = as §1, with “on Z-013” for “on Z-029”, “to rabbit” for “to rat”, “number: ERS12561813” for “number: ERS12561828”; conditions: 2 µM
[17] = human gut metagenome, 24 h, 2 µM; remark: listed apart in the source
[18] = human gut metagenome, 24 h, 2 µM; remark: listed apart in the source
[19] = as §1, with “on WLS-038” for “on Z-029”, “to human” for “to rat”, “number: ERS12561745” for “number: ERS12561828”; conditions: 2 µM
[20] = as §1, with “on WLS-006” for “on Z-029”, “to human” for “to rat”, “number: ERS12561741” for “number: ERS12561828”; conditions: 2 µM
Further: call rule not given here.

SMILES	Bacterial Biotransformation [1]	Bacterial Biotransformation [2]	Bacterial Biotransformation [3]	Bacterial Biotransformation [4]	Bacterial Biotransformation [5]	Bacterial Biotransformation [6]	Bacterial Biotransformation [7]	Bacterial Biotransformation [8]	Bacterial Biotransformation [9]	Bacterial Biotransformation [10]	Bacterial Biotransformation [11]	Bacterial Biotransformation [12]	Bacterial Biotransformation [13]	Bacterial Biotransformation [14]	Bacterial Biotransformation [15]	Bacterial Biotransformation [16]	Bacterial Biotransformation [17]	Bacterial Biotransformation [18]	Bacterial Biotransformation [19]	Bacterial Biotransformation [20]
COc1ccccc1OCC(O)COC(N)=O (stereo not given) [METHOCARBAMOL]	Compound NOT metabolized	Compound NOT metabolized	Compound NOT metabolized	Compound NOT metabolized	Compound NOT metabolized	Compound NOT metabolized	Compound NOT metabolized	Compound NOT metabolized	Compound NOT metabolized	Compound NOT metabolized	Compound NOT metabolized	Compound NOT metabolized	Compound NOT metabolized	Compound NOT metabolized	Compound NOT metabolized	Compound NOT metabolized	Compound NOT metabolized	Compound NOT metabolized	Compound NOT metabolized	Compound NOT metabolized
CC[C@@H](CO)NC(=O)[C@@H]1C=C2c3cccc4c3c(cn4C)C[C@H]2N(C)C1.O=C(O)/C=C\C(=O)O [METHYSERGIDE MALEATE]	Compound NOT metabolized	Compound NOT metabolized	Compound metabolized	Compound NOT metabolized	Compound NOT metabolized	Compound NOT metabolized	Compound NOT metabolized	Compound NOT metabolized	Compound NOT metabolized	Compound NOT metabolized	Compound NOT metabolized	Compound NOT metabolized	Compound NOT metabolized	Compound NOT metabolized	Compound NOT metabolized	Compound NOT metabolized	Compound NOT metabolized	Compound NOT metabolized	Compound NOT metabolized	Compound NOT metabolized
CCN(CC)CCNC(=O)c1cc(Cl)c(N)cc1OC [METOCLOPRAMIDE]	Compound NOT metabolized	Compound NOT metabolized	Compound NOT metabolized	Compound NOT metabolized	Compound NOT metabolized	Compound NOT metabolized	Compound NOT metabolized	Compound NOT metabolized	Compound NOT metabolized	Compound NOT metabolized	Compound NOT metabolized	Compound NOT metabolized	Compound NOT metabolized	Compound NOT metabolized	Compound NOT metabolized	Compound NOT metabolized	Compound NOT metabolized	Compound NOT metabolized	Compound NOT metabolized	Compound NOT metabolized
Cc1ccccc1N1C(=O)c2cc(S(N)(=O)=O)c(Cl)cc2NC1C (stereo not given) [METOLAZONE]	Compound NOT metabolized	Compound NOT metabolized	Compound metabolized	Compound NOT metabolized	Compound metabolized	Compound NOT metabolized	Compound metabolized	Compound NOT metabolized	Compound NOT metabolized	Compound NOT metabolized	Compound NOT metabolized	Compound NOT metabolized	Compound NOT metabolized	Compound NOT metabolized	Compound NOT metabolized	Compound NOT metabolized	Compound NOT metabolized	Compound metabolized	Compound NOT metabolized	Compound NOT metabolized
COCCc1ccc(OCC(O)CNC(C)C)cc1.COCCc1ccc(OCC(O)CNC(C)C)cc1.O=C(O)C(O)C(O)C(=O)O (stereo not given) [METOPROLOL TARTRATE]	Compound NOT metabolized	Compound NOT metabolized	Compound metabolized	Compound NOT metabolized	Compound metabolized	Compound NOT metabolized	Compound NOT metabolized	Compound NOT metabolized	Compound NOT metabolized	Compound NOT metabolized	Compound NOT metabolized	Compound NOT metabolized	Compound NOT metabolized	Compound NOT metabolized	Compound NOT metabolized	Compound NOT metabolized	Compound metabolized	Compound NOT metabolized	Compound NOT metabolized	Compound NOT metabolized
CCN(CC)CCOC(=O)C(Cc1cccc2ccccc12)CC1CCCO1.O=C(O)C(=O)O (stereo not given) [NAFRONYL OXALATE]	Compound NOT metabolized	Compound metabolized	Compound metabolized	Compound metabolized	Compound metabolized	Compound metabolized	Compound NOT metabolized	Compound metabolized	Compound metabolized	Compound metabolized	Compound metabolized	Compound metabolized	Compound metabolized	Compound metabolized	Compound NOT metabolized	Compound NOT metabolized	Compound metabolized	Compound NOT metabolized	Compound metabolized	Compound metabolized
CCc1nn(CCCN2CCN(c3cccc(Cl)c3)CC2)c(=O)n1CCOc1ccccc1 [NEFAZODONE]	Compound NOT metabolized	Compound NOT metabolized	Compound metabolized	Compound metabolized	Compound metabolized	Compound NOT metabolized	Compound NOT metabolized	Compound NOT metabolized	Compound NOT metabolized	Compound NOT metabolized	Compound NOT metabolized	Compound NOT metabolized	Compound NOT metabolized	Compound NOT metabolized	Compound NOT metabolized	Compound NOT metabolized	Compound metabolized	Compound metabolized	Compound metabolized	Compound metabolized
CN1CCOC(c2ccccc2)c2ccccc2C1 (stereo not given) [NEFOPAM]	Compound NOT metabolized	Compound NOT metabolized	Compound metabolized	Compound NOT metabolized	Compound metabolized	Compound NOT metabolized	Compound NOT metabolized	Compound metabolized	Compound NOT metabolized	Compound NOT metabolized	Compound NOT metabolized	Compound NOT metabolized	Compound NOT metabolized	Compound NOT metabolized	Compound NOT metabolized	Compound NOT metabolized	Compound metabolized	Compound NOT metabolized	Compound NOT metabolized	Compound metabolized
